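Tested at 5 concentrations; 48 h exposure; 96-well plates; endpoints linearly interpolated, else capped at highest concentration. GI50 is the concentration that inhibits growth by half.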 Active and inactive are the calls of the source. Rule as the data show it: active = GI50 up to about 1.1 µM and inactive = higher.
Experiments:
Assay in all cases: inhibition of tumour cell growth, NCI panel, 48 h
[1] = system: LOX IMVI
[2] = system: NCI-H226
[3] = system: M14
[4] = system: CAKI-1
[5] = system: ACHN
[6] = system: SNB-19
[7] = system: HOP-62
[8] = system: RPMI-8226
[9] = system: HCT-15
[10] = system: SK-OV-3
[11] = system: SNB-75
[12] = system: A498
[13] = system: UACC-62
[14] = system: SK-MEL-28
[15] = system: SF-295
[16] = system: HL-60
[17] = system: U-251
[18] = system: COLO 205
[19] = system: CCRF-CEM
[20] = system: SR

Structure (SMILES) | GI50 [1] | GI50 [2] | GI50 [3] | GI50 [4] | GI50 [5] | GI50 [6] | GI50 [7] | GI50 [8] | GI50 [9] | GI50 [10] | GI50 [11] | GI50 [12] | GI50 [13] | GI50 [14] | GI50 [15] | GI50 [16] | GI50 [17] | GI50 [18] | GI50 [19] | GI50 [20]
C[C@]12CC[C@@H]3c4ccc(O)cc4CC[C@H]3[C@@H]1CC[C@@H]2OP(=O)(O)O | > 100 µM (inactive) | > 100 µM (inactive) | > 100 µM (inactive) | > 100 µM (inactive) | > 100 µM (inactive) | > 100 µM (inactive) | > 100 µM (inactive) | > 100 µM (inactive) | > 100 µM | > 100 µM (inactive) | > 100 µM (inactive) | > 100 µM (inactive) | > 100 µM (inactive) | > 100 µM (inactive) | > 100 µM (inactive) | > 100 µM (inactive) | > 100 µM (inactive) | > 100 µM (inactive) | > 100 µM (inactive) | 
O=C1C(Cl)N(c2cccc(Cl)c2)C1c1c[nH]c2ccccc12 (stereo unspecified) |  |  | > 100 µM (inactive) |  |  | > 100 µM (inactive) | > 100 µM (inactive) | > 100 µM (inactive) |  | > 100 µM (inactive) | > 100 µM (inactive) |  | > 100 µM (inactive) | > 100 µM (inactive) | > 100 µM (inactive) | > 100 µM (inactive) | > 100 µM (inactive) | > 100 µM (inactive) | > 100 µM (inactive) | > 100 µM (inactive)
CC(=O)O[C@]12CCCCCC1C1(O)C(O)CCCC[C@H]12 (stereo partly specified) | > 100 µM (inactive) | > 100 µM (inactive) | > 100 µM (inactive) |  | > 100 µM (inactive) | > 100 µM (inactive) | > 100 µM (inactive) | > 100 µM (inactive) | > 100 µM | > 100 µM (inactive) | 14.7 µM (inactive) |  | > 100 µM (inactive) | > 100 µM (inactive) | > 100 µM (inactive) | > 100 µM (inactive) | > 100 µM (inactive) | > 100 µM (inactive) | > 100 µM (inactive) | > 100 µM (inactive)
COC(=O)c1ccc(/N=N/N(C)COc2ccc([N+](=O)[O-])cc2)cc1 | > 86.9 µM (inactive) | > 100 µM (inactive) |  |  |  | > 100 µM (inactive) | > 100 µM (inactive) | 38.7 µM (inactive) | > 90.8 µM | > 100 µM (inactive) | 54.6 µM (inactive) | > 87.5 µM (inactive) | 33.3 µM (inactive) | > 100 µM (inactive) | > 77.4 µM (inactive) | 21.8 µM (inactive) | > 100 µM (inactive) | > 57.3 µM (inactive) | 58.2 µM (inactive) | 
O=S(=O)(O)c1ccc(/N=N\c2ccc(/N=N/c3ccc(/C=C/c4ccc(/N=[N+](\[O-])c5ccc(/C=C/c6ccc(/N=N/c7ccc(/N=N/c8ccc(S(=O)(=O)O)cc8)c8ccccc78)cc6S(=O)(=O)O)c(S(=O)(=O)O)c5)cc4S(=O)(=O)O)c(S(=O)(=O)O)c3)c3ccccc23)cc1 | > 100 µM (inactive) | > 83.4 µM (inactive) |  |  |  | > 10 µM (inactive) | > 100 µM (inactive) | > 100 µM (inactive) | > 100 µM | > 100 µM (inactive) | 50.7 µM (inactive) | > 100 µM (inactive) | > 100 µM (inactive) | > 100 µM (inactive) | > 74.6 µM (inactive) | > 100 µM (inactive) | > 91.4 µM (inactive) | > 100 µM (inactive) | > 100 µM (inactive) | 
CCOC(=O)c1ccc(N(CCOS(=O)(=O)c2ccc(C)cc2)CCOS(=O)(=O)c2ccc(C)cc2)cc1 | > 100 µM (inactive) |  | > 100 µM (inactive) | 4.94 µM (inactive) | 6.78 µM (inactive) | > 100 µM (inactive) |  | 10 µM (inactive) | > 100 µM |  |  | > 100 µM (inactive) | > 100 µM (inactive) |  | > 100 µM (inactive) |  | 6.76 µM (inactive) | > 100 µM (inactive) | 2.47 µM (inactive) | 
O=C(O)Cc1cccc2c1Oc1ccccc1S2 | > 100 µM (inactive) | > 100 µM (inactive) | > 100 µM (inactive) |  | > 100 µM (inactive) | > 100 µM (inactive) | > 100 µM (inactive) | > 100 µM (inactive) | > 100 µM | > 100 µM (inactive) | > 100 µM (inactive) | > 100 µM (inactive) | > 100 µM (inactive) | > 100 µM (inactive) | > 100 µM (inactive) | > 100 µM (inactive) | > 100 µM (inactive) | > 100 µM (inactive) | > 100 µM (inactive) | 
COc1ccc2c(c1)CCN=C2Cc1cc(OC)c(OC)cc1CCCl | 31.9 µM (inactive) | 64.6 µM (inactive) | 21.2 µM (inactive) | > 100 µM (inactive) | 57 µM (inactive) | 97.1 µM (inactive) | 3.08 µM (inactive) | 55 µM (inactive) |  | > 100 µM (inactive) | > 100 µM (inactive) |  | 53.8 µM (inactive) | 66.2 µM (inactive) | 30.9 µM (inactive) |  | 86.7 µM (inactive) | 58.7 µM (inactive) | > 100 µM (inactive) | 94.6 µM (inactive)
